Data on six compounds can be found in patent US6919334B2, “Antidepressant azaheterocyclymethyl derivatives of 4,5-dihydroimidazo[1,4,5-de][1,4]benzoxazine” (Wyeth, priority 2002, dated 2005).

One data set deals with T1, human 5-HT1A receptors (Homo sapiens, UniProt P08908).
T1 construct: expressed in transfected cells; host or cells: CHO cells, stably transfected
T1 sequence (P08908 1-422): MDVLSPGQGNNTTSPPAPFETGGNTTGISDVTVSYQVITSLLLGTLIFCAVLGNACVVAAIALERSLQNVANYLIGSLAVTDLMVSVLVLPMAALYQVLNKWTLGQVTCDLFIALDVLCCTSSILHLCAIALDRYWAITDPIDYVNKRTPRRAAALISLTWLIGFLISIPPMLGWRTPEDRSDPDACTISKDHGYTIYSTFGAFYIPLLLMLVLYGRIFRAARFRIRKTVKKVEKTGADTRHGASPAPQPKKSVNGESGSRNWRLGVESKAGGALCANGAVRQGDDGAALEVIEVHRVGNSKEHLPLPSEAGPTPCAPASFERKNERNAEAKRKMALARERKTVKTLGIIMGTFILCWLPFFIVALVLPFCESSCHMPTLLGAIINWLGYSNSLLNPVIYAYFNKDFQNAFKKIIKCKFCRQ
Briefly: [3H] 8-OHDPAT displacement from 5-HT1A receptor (transfected CHO cells). It counts as binding. Conditions: percent displacement of [3H] 8-OHDPAT at 1 micromolar; CHO cells with human 5-HT1A. The source says:
Affinity for the serotonin 5-HT1A receptor was established by testing the claimed compound's ability to displace [^3H] 8-OHDPAT (dipropylaminotetralin) from the 5-HT1A serotonin receptor following a modification of the procedure of Hall et al., J. Neurochem. 44, 1685 (1985), which utilizes CHO cells stably transfected with human 5-HT1A receptors.
A general note: Loss of bound radioactivity is the signal in a displacement assay; it reports binding, not function.

The next data set addresses T2, serotonin transporter (Rattus norvegicus, UniProt P31652).
T2 construct: displace ^3H-paroxetine from male rat frontal cortical membranes; from tissue; host or cells: male rat frontal cortex membranes
Briefly: 3H-paroxetine displacement, affinity for the serotonin transporter. It is filed as binding.

Data set [1] addresses T3, cloned human 5-HT1A receptors (Homo sapiens, UniProt P08908).
T3 construct: expressed in transfected cells
T3 sequence (P08908 1-422): T1 sequence (P08908 1-422)
Briefly: 35S-GTPγS binding assay, antagonist activity at 5-HT1A receptors. It counts as biochemical. Particulars: reversal of agonist 8-OHDPAT; for IC50: membranes with cloned human 5-HT1A, read-out: 5-HT1A Function IC50; for 5-HT1A Function (Imax), maximum inhibitory effect: value in parentheses. Here is the method:
Antagonist activity at 5-HT1A receptors was established by using a ^35S-GTPγS binding assay similar to that used by Lazareno and Birdsall (Br. J. Pharmacol. 109: 1120, 1993), in which the test compound's ability to affect the binding of ^35S-GTPγS to membranes containing cloned human 5-HT1A receptors was determined. Agonists produce an increase in binding whereas antagonists produce no increase but rather reverse the effects of the standard agonist 8-OHDPAT. The test compound's maximum inhibitory effect is represented as the Imax, while its potency is defined by the IC50.

T2 sequence (P31652 whole entry): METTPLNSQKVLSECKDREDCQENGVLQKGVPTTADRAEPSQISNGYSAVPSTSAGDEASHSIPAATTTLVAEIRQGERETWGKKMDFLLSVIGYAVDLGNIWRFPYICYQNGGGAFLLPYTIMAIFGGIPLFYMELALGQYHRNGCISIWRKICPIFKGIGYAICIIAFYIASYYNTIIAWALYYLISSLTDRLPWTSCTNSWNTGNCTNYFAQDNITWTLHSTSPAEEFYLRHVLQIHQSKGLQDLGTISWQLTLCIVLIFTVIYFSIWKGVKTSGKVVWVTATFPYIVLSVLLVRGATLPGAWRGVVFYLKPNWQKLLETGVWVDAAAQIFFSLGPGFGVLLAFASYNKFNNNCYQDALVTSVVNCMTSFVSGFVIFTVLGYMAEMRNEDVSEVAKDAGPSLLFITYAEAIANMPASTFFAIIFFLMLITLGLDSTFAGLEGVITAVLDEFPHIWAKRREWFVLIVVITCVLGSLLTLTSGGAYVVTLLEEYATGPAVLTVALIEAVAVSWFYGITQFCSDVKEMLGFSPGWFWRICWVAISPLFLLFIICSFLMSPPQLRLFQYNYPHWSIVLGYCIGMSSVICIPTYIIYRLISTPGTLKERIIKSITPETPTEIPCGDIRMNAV

Usually Ki stands for a measure of affinity in units of concentration, obtained from inhibition or displacement. What is called IC50 is the concentration that gives 50% inhibition. The term melting point denotes the temperature, or range, at which the solid turns liquid. Compound `N#Cc1ccc2[nH]cc(C3=CCN(CC4COc5cccc6[nH]c(=O)n4c56)CC3)c2c1` (stereo not drawn) [Example 4, 3-{1-[(2-Oxo-1,2,4,5-tetrahydroimidazo[1,5,4-de][1,4]benzoxazin-4-yl)methyl]-1,2,3,6-tetrahydropyridin-4-yl}-1H-indole-5-carbonitrile] registered a melting point of more than 160 °C. The “5-HT1A Receptor Affinity % @ 1 μM” value on human 5-HT1A receptors was 49%. For the same compound, the Ki on serotonin transporter came out at 3.55 nM. Further, in data set [1], the IC50 was determined as 750 nM and the “5-HT1A Function (Imax), maximum inhibitory effect” value amounted to 100.
As to `O=c1[nH]c2cccc3c2n1C(CN1CC=C(c2c[nH]c4ccc(Cl)cc24)CC1)CO3` (stereo not drawn) [Example 3, 4-{[4-(5-chloro-1H-indol-3-yl)-3,6-dihydropyridin-1(2H)-yl]methyl}-4,5-dihydroimidazo[1,5,4-de][1,4]benzoxazin-2(1H)-one], the melting point was 153 to 155 °C. Further, the “5-HT1A Receptor Affinity % @ 1 μM” value at human 5-HT1A receptors is 81%. The same compound returned a Ki on serotonin transporter of 15 nM. Further, in data set [1], the IC50 is 300 nM and the “5-HT1A Function (Imax), maximum inhibitory effect” value stood at 30.
Compound `O=c1[nH]c2cccc3c2n1C(CN1CC=C(c2c[nH]c4c(F)cccc24)CC1)CO3` (stereo not drawn) [Example 5, 4-{[4-(7-Fluoro-1H-indol-3-yl)-3,6-dihydropyridin-1(2H)-yl]methyl}-4,5-dihydroimidazo[1,5,4-de][1,4]benzoxazin-2(1H)-one] returned a melting point of more than 120 °C. Besides, the “5-HT1A Receptor Affinity % @ 1 μM” value on human 5-HT1A receptors turned out to be 48%. Also, the Ki at serotonin transporter is 1.23 nM. In addition, in data set [1], the IC50 stood at 750 nM and the “5-HT1A Function (Imax), maximum inhibitory effect” value amounted to 100.
Regarding `O=c1[nH]c2cccc3c2n1C(CN1CC=C(c2c[nH]c4ccc(F)cc24)CC1)CO3` (stereo not drawn) [Example 2], the melting point is 152 to 155 °C. Further, the “5-HT1A Receptor Affinity % @ 1 μM” value on human 5-HT1A receptors came to 36%. The compound also had a Ki at serotonin transporter of 2.08 nM. For the same compound, in data set [1], the IC50 amounted to 300 nM and the “5-HT1A Function (Imax), maximum inhibitory effect” value came out at 30.
The like results for `O=c1[nH]c2cccc3c2n1C(CN1CC=C(c2c[nH]c4ccccc24)CC1)CO3` (stereo not drawn) [Example 1, 4-{[4-(1H-indol-3-yl)-3,6-dihydropyridin-1(2H)-yl]methyl}-4,5-dihydroimidazo[1,5,4-de][1,4]benzoxazin-2(1H)-one] were, in that order, 147 to 149 °C, 94%, 1.07 nM, 300 nM and 30.
For `Cc1nc2cccc3c2n1C(CN1CC=C(c2c[nH]c4ccccc24)CC1)CO3` (stereo not drawn) [Example 6, 4-{[4-(1H-indole-3-yl)-3,6-dihydropyridin-1(2H)-yl]methyl}-2-methyl-4,5-dihydroimidazo[1,5,4-de][1,4]benzoxazine], in that order: 222 to 225 °C, 39%, 1.86 nM, 450 nM and 100.
